{"source": "patent US20230303577A1", "about": "“TEMOZOLOMIDE ANALOGS AND METHODS OF USE” (St. John's Cancer Institute, priority 2020, published 2023)", "key": {"[1]": {"tested_on": "A172", "assay": "cells", "conditions": "Homo sapiens, A 172, 72 h, read-out: IC50, 72 h", "method": "The effect of selected compounds on glioma cells viability was determined. The cells were plated at 2000 cells/well in 96 well plates. The day after, cells were treated with various concentrations of temozolomide or VMY-TP analogs.\nActivity of TP-RGD was assessed in glioma cell cultures, as described in Example 11."}, "[2]": {"assay": "Pre-formulation testing: solubility, pH and stability in vehicles", "format": "physicochemical", "method": "Two formulations for TP3 and TMZ were prepared (Tables 10 and 11). Pre-formulation testing was in volumes of 100 μl-250 μl, and should be confirmed with larger volumes. Mice were dosed at 20 mg/kg of TMZ and TP3 using formulation 2 orally and brain and plasma samples were collected at 0, 0.5, 1, 3, 6 and 12 h timepoints and the concentration was measured using LC-MS and calculate PK parameters using standard equation. The stability profile (FIGS. 9A and 9B) and release kinetics profiles (FIGS. 10A and 10B) were compared. Single dose oral brain to plasma pharmacokinetic parameters were determined with Formulation 2 (Table 12)."}, "[3]": {"tested_on": "U87-Luc", "assay": "Orthotopic U87-Luc human glioblastoma tumor xenograft model", "format": "in vivo, Athymic Nude mice", "conditions": "10 mg/kg oral gavage", "method": "Animal studies were performed in accordance with Translational Drug Development, LLC IACUC-approved protocols. Intracranial tumors were generated by injecting 3×10^5 U87-Luc cells in […] of growth media into the right corpus striatum (1 mm anterior and 2 mm lateral to the bregma, depth of 3 mm) of Athymic Nude (Crl:NU(NCr)-Foxn1nu) mice (Charles River, Hollister, CA). Treatment was initiated 7 days after injection. […] Oral gavage treatments were formulated in 10% PEG300 in PBS. Bioluminescence (Total ROI, photons/s) images were performed under anesthesia once weekly starting on Day 1 (7 days post inoculation of U87-Luc cells) and body weights were recorded twice weekly. […] Upon peri-morbidity or at study end, mice were euthanized, brain tumor was excised from right side of brain, and a wet weight was recorded. If tumor was not grossly identifiable, expected tumor-region of the brain was collected. Tissue was fixed in formalin for 48-72 hours and then stored in 70% Ethanol.\nA minimum of 100 μL/mouse of whole blood was collected via submandibular survival bleed on Day 10 and Day 27 from 3 mice per group (selected by TD2) from Groups 1, 2 and 4 for assessment of hematological toxicity. Blood was placed in K2-EDTA microtainer tubes (Becton, Dickinson & Co.; Franklin Lakes, NJ) and mixed thoroughly before CBC analysis at TD2."}, "[4]": {"tested_on": "U251", "assay": "cells", "conditions": "Homo sapiens, U-251, 72 h, read-out: IC50 U251 cell proliferation (BrdU ELISA)", "quoted_text": "U87 cells were seeded at the density of 2,000 cells/well in 96-well plates and incubated overnight. The day after, cells were treated with various concentrations of Temozolomide or analogs for 72 hours. The BrdU ELISA proliferation assay was performed according to the manufacturer's instructions (Roche, #11647229001). Briefly, 20 μl of diluted BrdU labelling reagent was added to each well, to a final concentration of 10 μM BrdU per well. The cells were then incubated at 37° C. for 24 hours. Following this incubation, the labeling medium was aspirated from each well and 200 μl of Roche FixDenat fixing buffer was added. The plates were then incubated at 25° C. for 30 minutes. The fixing solution was removed, and 100 μl of Anti-BrdU-POD antibody was added to each well and incubated again at 25° C. for 90 minutes. Wells were rinsed three times with 200 μl of PBS, then 100 μl of Roche Substrate solution was added to each well. Following a 25 minute incubation at room temperature, the absorbance of each plate was read at 370 nm (reference wavelength: approx. 492 nm) on a Spectramax® i3x microplate reader.\nThe effect on U251 cell proliferation after 72 hours of treatment was also assessed using the BrdU ELISA cell proliferation assay as described in Example 11."}, "[5]": {"conditions": "background statement; cited from earlier work"}, "[6]": {"tested_on": "U87 cells", "assay": "U87 subcutaneous flank xenograft GBM model", "format": "in vivo, SCID mice", "conditions": "20 mg/kg orally, once daily then every other day, 14 days", "method": "A suspension of U87 cells was prepared in 1×HBSS, pH 7.4 and mixed with an equal volume (1:1) of ice cold Matrigel®. Then, 0.1 mL of the cell suspension containing 5×10^6 cells was injected subcutaneously using a 22-gauge needle into the flank region of SCID mice. Animals were monitored daily during the period between inoculation and study initiation. Treatment was started when the average tumor size reached approximately ˜100 mm^3. The test (TP3) and Reference compound (TMZ) were administered orally at 20 mg/kg at a dose volume of 10 mL/Kg. The exact dose was administered based on individual animal body weight recorded during the study period. The TP3 and TMZ treatments were scheduled for once daily dosing for 14 days. However, the dose frequency had to be reduced from once daily to every other day, due to a 10-14% loss of body weight seen in the treated mice from Day 9 until study completion (FIG. 11D). The control group was administered vehicle alone. The test and reference compounds were formulated in 0.4% (v/v) Tween 80, 2% (v/v) Glycerol and 97.6% (v/v) of 30% (w/v) Captisol (SPECD). Number of mice per treatment cohort=8. Tumor growth was measured twice weekly using a digital Vernier caliper."}, "[7]": {"conditions": "2.0 mg/mL in 10% DMA + 15% Solutol HS15 + 10% PEG 400 + 10% PG + 55% of 15% (w/v) Captisol"}, "[8]": {"conditions": "2.0 mg/mL in 10% DMA + 10% Tween 80 + 15% PEG 400 + 15% PG + 50% of 15% (w/v) Captisol"}, "[9]": {"conditions": "2.0 mg/mL in 10% DMA + 10% Tween 80 + 15% PEG 400 + 15% PG + 50% of 25% (w/v) Captisol"}, "[10]": {"conditions": "4.0 mg/mL in 5% DMA + 10% Tween 80 + 10% PEG 400 + 10% PG + 65% of 50% (w/v) Captisol"}, "[11]": {"conditions": "4.0 mg/mL in 10% DMA + 10% Tween 80 + 10% PEG 400 + 10% PG + 60% of 50% (w/v) Captisol"}}}
{"smiles": "Cn1nnc2c(C(N)=O)ncn2c1=O", "note": "[TMZ, temozolomide]", "values": [{"measurement": "IC50", "setting": "[1]", "result": "> 100", "unit": "µM"}, {"measurement": "Remarks (solubility)", "setting": "[2]; [7]", "result": "Soluble"}, {"measurement": "Stability (0-4 h)", "setting": "[2]; Formulation 2, 2 mg/ml", "result": "Stable"}, {"measurement": "Stability (0-4 h)", "setting": "[2]; Formulation 3, 2 mg/ml", "result": "Stable"}, {"measurement": "effect on body weight", "setting": "[3]; QD×5×4, compared to control", "result": "impacted body weight"}, {"measurement": "day 22 mean BLI value", "setting": "[3]; QD×5×4, control 2.43E+08", "result": "1.87E+06", "unit": "photon/s"}, {"measurement": "IC50", "setting": "[4]", "result": "> 200", "unit": "µM"}, {"measurement": "retention in the cerebral parenchyma", "setting": "[5]", "result": 20, "unit": "%"}]}
{"smiles": "CCCCCCNC(=O)c1ncn2c(=O)n(C)nnc12", "note": "[TP3, N-hexyl-3-methyl-4-oxo-3,4-dihydroimidazo[5,1-d][1,2,3,5]tetrazine-8-carboxamide]", "values": [{"measurement": "Remarks (solubility)", "setting": "[2]; 2.0 mg/mL in 5% DMA + 10% Tween 80 + 10% PEG 400 + 10% PG + 65% of 15% (w/v) Captisol", "result": "Not Soluble"}, {"measurement": "Remarks (solubility)", "setting": "[2]; 2.0 mg/mL in 10% DMA + 10% Tween 80 + 10% PEG 400 + 10% PG + 60% Normal saline", "result": "Not Soluble"}, {"measurement": "pH", "setting": "[2]; 2.0 mg/mL in 10% DMA + 10% Tween 80 + 10% PEG 400 + 10% PG + 60% of 15% (w/v) Captisol (100 μL)", "result": "~6"}, {"measurement": "Remarks (solubility)", "setting": "[2]; 2.0 mg/mL in 10% DMA + 10% Tween 80 + 10% PEG 400 + 10% PG + 60% of 15% (w/v) Captisol (100 μL, from 20 mg/mL DMA stock)", "result": "Soluble"}, {"measurement": "Remarks (solubility)", "setting": "[2]; 2.0 mg/mL in 10% DMA + 10% Tween 80 + 10% PEG 400 + 10% PG + 60% of 15% (w/v) Captisol (250 μL)", "result": "Not Soluble"}, {"measurement": "Remarks (solubility)", "setting": "[2]; 2.0 mg/mL in 10% DMA + 10% Tween 80 + 10% PEG 400 + 10% PG + 60% of 15% (w/v) HPβCD", "result": "Not Soluble"}, {"measurement": "Remarks (solubility)", "setting": "[2]; [8]", "result": "Soluble"}, {"measurement": "pH", "setting": "[2]; [8]", "result": "~6"}, {"measurement": "Remarks (solubility)", "setting": "[2]; [9]", "result": "Soluble"}, {"measurement": "pH", "setting": "[2]; [9]", "result": "~6"}, {"measurement": "Remarks (solubility)", "setting": "[2]; [7]", "result": "Soluble"}, {"measurement": "Remarks (solubility)", "setting": "[2]; [10]", "result": "Soluble"}, {"measurement": "pH", "setting": "[2]; [10]", "result": "~6"}, {"measurement": "Remarks (solubility)", "setting": "[2]; 4.0 mg/mL in 5% DMA + 10% Tween 80 + 10% PEG 400 + 10% PG + 65% of 50% (w/v) HPβCD", "result": "Not Soluble"}, {"measurement": "Remarks (solubility)", "setting": "[2]; 4.0 mg/mL in 10% DMA + 5% Tween 80 + 15% PEG 400 + 15% PG + 50% of 25% (w/v) Captisol", "result": "Not Soluble"}, {"measurement": "Remarks (solubility)", "setting": "[2]; 4.0 mg/mL in 10% DMA + 5% Tween 80 + 85% Normal saline", "result": "Not Soluble"}, {"measurement": "Remarks (solubility)", "setting": "[2]; 4.0 mg/mL in 10% DMA + 10% Tween 80 + 10% PEG 400 + 10% PG + 60% Normal saline", "result": "Not Soluble"}, {"measurement": "Remarks (solubility)", "setting": "[2]; [11]", "result": "Soluble"}, {"measurement": "pH", "setting": "[2]; [11]", "result": "~6"}, {"measurement": "Remarks (solubility)", "setting": "[2]; 4.00 mg/mL in 25% of DMSO + 75% Normal Saline", "result": "Not Soluble"}, {"measurement": "Stability (0-4 h)", "setting": "[2]; Formulation 2, 2 mg/ml", "result": "Stable"}, {"measurement": "pH", "setting": "[2]; Formulation 2, 2 mg/ml", "result": 4.81}, {"measurement": "Stability (0-4 h)", "setting": "[2]; Formulation 3, 2 mg/ml", "result": "Stable"}, {"measurement": "pH", "setting": "[2]; Formulation 3, 2 mg/ml", "result": 5.66}, {"measurement": "tumor volume", "setting": "[6]", "result": "significantly reduced"}, {"measurement": "tumor weight", "setting": "[6]", "result": "significantly reduced"}]}
